Assay results from patent publication US5071643A, “Solvent system enhancing the solubility of pharmaceuticals for encapsulation” (R. P. Scherer Corporation, priority 1987, dated 1991).

Assays:
[1] = Appearance of ibuprofen mixtures in PEG 400 with sodium or potassium hydroxide (visual inspection); type: physicochemical
Method: Mixtures were prepared in 10 g quantities by dispersing the acidic pharmaceutical agent in polyethylene glycol or polyethylene glycol and glycerin or polyethylene glycol and polyvinylpyrrolidone or polyethylene glycol, glycerin, and polyvinylpyrrolidone. Aqueous solutions of hydroxide were then added.

[2] = Solubility of the basic drug thioridazine in PEG 400 in presence and absence of hydrogen ion

Row | Compound | Appearance (Room temp) ([1]; 200 mg in 200 mg PEG 400, NaOH 0.1 M/E, water 1.5 wt %, slight ppt) | Appearance (Room temp) ([1]; 200 mg in 200 mg PEG 400, NaOH 0.2 M/E, water 2.8 wt %) | Appearance (Room temp) ([1]; 200 mg in 200 mg PEG 400, NaOH 0.3 M/E, water 4.1 wt %) | Appearance (Room temp) ([1]; 200 mg in 200 mg PEG 400, NaOH 0.4 M/E, water 5.2 wt %) | Appearance (Room temp) ([1]; 200 mg in 200 mg PEG 400, NaOH 0.5 M/E, water 6.6 wt %, solid admixture) | precipitation in presence of sodium hydroxide ([1]; PEG 400, 0.5 or more mole equivalents NaOH) | precipitation in presence of potassium hydroxide ([1]; PEG 400, 1.0 mole equivalents KOH, even at 4° C.) | RESULT at 5° C. ([2]; FORMULA I, Hydrochloric Acid 0.0 mg) | RESULT at 5° C. ([2]; FORMULA II, Hydrochloric Acid 2.4 mg)
1 | CC(C)Cc1ccc(C(C)C(=O)O)cc1 (stereo not drawn) [Ibuprofen, ibuprofen] | Insoluble | Soluble | Soluble | Soluble | Insoluble | precipitation occurs | no precipitation occurs | – | –
2 | CSc1ccc2c(c1)N(CCC1CCCCN1C)c1ccccc1S2 (stereo not drawn) [Thioridazine, thioridazine] | – | – | – | – | – | – | – | INSOLUBLE | SOLUBLE
